Data on three compounds can be found in patent US12130255B2, “High-throughput label-free enzymatic bioassays using DESI-MS” (priority 2020, dated 2024).

For assay [1], the target named is T1, acetylcholinesterase (AChE) (Homo sapiens, UniProt P22303). Kind of assay: DESI-MS AChE inhibition, Dixon plot (inhibitor and substrate concentrations varied). The assay is classed as biochemical.
Experimental: For kinetic determinations the reactions were incubated for 50 minutes, with the concentration of substrate held kept between 0.4 to 1 mM, while the concentration of enzyme was set to 180 ng/mL. Note that only concentrations within the calibration range were used. The calibrated result (inset) is used to determine v0 of the reaction. The data shown come from eight instrumental replicates from a single mixture (128 spots), acquired in less than 2.5 minutes.
Further characterization of the inhibitors was achieved by screening simultaneously different concentrations of inhibitor and the substrate in order to obtain the Dixon plot (FIG. 11). […] This Dixon plot required that 24 independent progress curves be determined: duplicate measurements taken on 12 combinations of concentrations of inhibitor (0, 40, 100, 200 nM) and substrate (0.6, 0.8, 1.0 mM). This required the analysis of 3072 spots, carried out in approx. 35 minutes, with simultaneous incubation time of 50 minutes.
The target of assay [2] is T1, acetylcholinesterase (AChE). Kind of assay: DESI-MS label-free acetylcholinesterase inhibition assay, dose-response curves. The assay is classed as biochemical.

T1 sequence (P22303 32-614, species assumed): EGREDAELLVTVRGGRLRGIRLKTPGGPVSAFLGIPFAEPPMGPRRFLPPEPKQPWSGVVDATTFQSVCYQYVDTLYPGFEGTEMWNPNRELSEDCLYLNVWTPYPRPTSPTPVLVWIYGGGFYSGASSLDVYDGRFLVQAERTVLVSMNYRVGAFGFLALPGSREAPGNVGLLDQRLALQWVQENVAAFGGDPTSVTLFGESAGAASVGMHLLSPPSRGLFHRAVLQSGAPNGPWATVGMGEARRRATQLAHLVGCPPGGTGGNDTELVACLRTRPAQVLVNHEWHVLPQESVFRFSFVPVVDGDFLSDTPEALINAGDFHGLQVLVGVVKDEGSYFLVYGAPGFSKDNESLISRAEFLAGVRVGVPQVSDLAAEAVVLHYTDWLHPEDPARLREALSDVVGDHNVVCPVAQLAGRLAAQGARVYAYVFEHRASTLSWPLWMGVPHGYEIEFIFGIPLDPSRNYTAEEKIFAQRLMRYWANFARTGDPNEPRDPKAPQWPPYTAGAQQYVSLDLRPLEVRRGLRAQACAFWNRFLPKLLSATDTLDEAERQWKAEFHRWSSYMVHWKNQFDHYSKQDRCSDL

Consider `CN(C)C(=O)Oc1cccc([N+](C)(C)C)c1` [neostigmine], for which, in assay [1], the “type of inhibition (intersection of the lines in the Dixon plot)” value is reported as “competitive inhibitor”. For orientation: IC50 means the point on the concentration scale where inhibition reaches its midpoint. A lower IC50 goes with higher potency. `COc1ccc2c3c1O[C@H]1C(=O)CC[C@H]4[C@@H](C2)N(C)CC[C@]314` [hydrocodone]: the IC50 in assay [2] was 116 µM.

The compound `COc1ccc2c3c1O[C@H]1C(=O)CC[C@@]4(O)[C@@H](C2)N(C)CC[C@]314` [oxycodone] came in with a half-inhibitory concentration (IC50) in assay [2] of 0.122 µM.
